From patent US7947468B2, “Methods” (Medical Research Council, priority 2007, dated 2011)
Blank lines part the entries; values can stand above or below the molecule they belong to.

Experiments:
Human Platelets = conditions: non-specific serine/threonine kinase inhibitor; cited from earlier work
LRRK2 = experiment: Concentration dependent phosphorylation of Nictide / LongLRRKtide by LRRK2; format: biochemical
Description: A longer LRRKtide, with the +7 to +12 residues of the Thr 558 site was compared to the LRRKtide by phosphorylation with LRRK2. […] The LRRK2 affinity for the longLRRKtide is ten fold more than that that of LRRKtide.
A derived consensus sequences is shown below the positions. FIG. 24B depicts an alignment of the peptide substrate sequences previously used for LRRK2, LRRKtide and LongLRRKtide, along with a new peptide in which the preferred LRRK2 residues are substituted, henceforth referred to as Nictide. […] Calculated Km values are 6 μM for Nictide.

Molecule: CN[C@@H]1C[C@H]2O[C@@](C)([C@@H]1OC)n1c3ccccc3c3c4c(c5c6ccccc6n2c5c31)C(=O)NC4 [staurosporine]
- effect on platelet behaviour (Human Platelets): form extremely long filopodia and not to spread on glass

Molecule: RLGRDKYKTLRQIRQGNTKQR (listed as Homo sapiens) [longLRRKtide]
- LRRK2 affinity relative to LRRKtide (LRRK2; compared to LRRKtide): ten fold

- Km (LRRK2; 5 min reaction times, read-out: Calculated Km): 6 µM
Molecule: RLGWWRFYTLRRARQGNTKQR [Nictide]
